Consider two compounds from patent publication EP3124080A1, “SEMISYNTHETIC BILE ACIDS FOR INJECTION LIPOLYSIS” (Merz Pharma GmbH & Co. KGaA, priority 2015, dated 2017).

Data set [1] concerns Preadipocytes (PromoCell). In words: alamar blue cell viability assay (adipocytolytic potential), preadipocytes. The format is cell-based. Conditions: for Viability Preadipocytes (%): 48h incubation, vehicle = 100%; for IC50: viability, 48 hrs, read-out: IC50 [µM] Pre-ad ipocytes. The protocol:
(§1) The following experimental setup was used for determination of adipocytolytic potential of test compounds with preadipocytes and mature adipocytes: • Preadipocytes (PromoCell) were seeded in Preadipocyte Growth Medium at 45000 cells/ cm^2 to allow attachment overnight. Cells were cultured at 37°C and 5% CO2 untill postconfluence. Differentiation was started with incubation of cells in Differentiation Medium for 7 days followed by incubation in Nutrition medium for 14 further days. After differentiation process, mature adipocytes were incubated with indicated concentration of indicated triterpenes.
(§2) 6 replicates of each test compound concentration were tested. Each plate included a negative control and a compound interference control (for all concentrations, duplicates).
(§3) Cell viability as surrogate for adipocytolytic potential of compounds were analysed by alamar blue assay. In brief, 20µl of a 0,1mg/ml Resazurin sodium salt (Sigma; R7017-1G) solution was added to each well 48 hrs after compound incubation. The cells were incubated for 90 min at 37°C and 5% CO2 and the resulting conversion of resazurin to resorufin was measured by a fluorescence plate reader at 590 nm. Vehicle controls were set as 100%. IC50-values were analysed using SigmaBlotV13.
For orientation: Alamar Blue is a resazurin reagent that responds to reducing activity.

Data set [2] has as its system in vitro matured adipocytes. Kind of data set: alamar blue cell viability assay (adipocytolytic potential), mature adipocytes. Type of data set: cell-based. Particulars: for Viability Adipocytes (%): 48h incubation, vehicle = 100%. On the procedure:
as §1, §2, §3

The test system of data set [3] is inguinal fat pad. Kind of data set: fat histology analysis of injected inguinal fat pads (H&E). The format is in vivo, Male Sprague-Dawley rats. The protocol: (§4) After shaving the skin the inguinal area, rats, were injected into the inguinal fat pads (3 injection sites per fat pad for every rat, 100ul/per site). For all groups, 6 rats were injected with sterile vehicle, or obeticholic acid on day 1, day 7 and day 14 in the right pad and left fat pad was intact. For the other 6 rats were injected with sterile vehicle obeticholic acid on day 1, day 7 and day 14 in the left pad and right pad was intact.
Inguinal fat embedded in paraffin were cross-sectioned (5 µm each). For each mouse, a serial section at intervals of 40 to 50 µm was made and one section was collected for every 10 sections. In total, five sections per animal were used for Hematoxylin and eosin (H&E) stain and adipocyte number and size analysis. Histologic examination was performed by well-trained pathologists in a double-blind fashion. Three factors were examined in each sample: the quantity of normal fat, fat necrosis and inflammatory activity. […]. H&E staining was used in evaluation of the inflammatory status.

The subject of data set [4] is adipocytes. Kind of data set: Caspase-Glo 3/7 Assay, apoptosis induction in adipocytes. Type of data set: cell-based. Conditions: vehicle basal apoptosis = 100%. On the procedure: as §1
For analysing the potential of compounds to induce apoptosis the Caspase-Glo® 3/7 Assay was used (Promega) as recommended by the supplier. In brief, 100µl of Caspase Reagent was added to 100µl cell culture medium and cells were incubated at 37°C and 5% CO2 for 1 hr. Luminescence signal was measured with a SynergyH4 plate reader. Vehicle controls were used to define basal apoptosis as 100%. Table 1 Impact on viability of in vitro matured adipocytes after 48h incubation with indicated compound in increasing concentration

In data set [5] the test system is inguinal fat pad. Kind of data set: injection into inguinal fat pads of rats: fat pad weight, volume, fat content. Type of data set: in vivo, Male Sprague-Dawley rats. Conditions: 3 sites 100 µl each, days 1, 7, 14, analysis day 35, mean ±SEM. The protocol:
All work was done under sterile extractor hood/luminar airflow working environment. Final solution were filtered through sterile 0.22um Millipore PES membrane syringer filter unit. […].
To 0.4099g Na3PO4 water for injection was added to a final weight of 50 g.
For the highest (2%) concentration, 100 mg of obeticholic acid were added with 2.75 ml of above solution, 112,5 mg of glycerol and finally 2.038 ml of sterile water to make 5 ml solution. Lower concentrations were adjusted accordingly.
Male Sprague-Dawley rats (200-300g of body weight) were used for this study (Vital River Laboratories Animal Ltd., China) and were housed in a temperature (22 ± 3 °C) and humidity (55 ± 15 %) controlled AAALAC accredited facility. Animals were provided with food (Keaoxieli certified Rodent Diet) and sterile water ad libitum. The animals were on a 12-hour light/dark (6:00 am /6:00 pm) cycle and acclimated for 1 week prior to the study. Rats were housed in a plexiglas cage (3 rats per cage).
as §4
Isolated inguinal fat pad volume was measured using YLS - 7 b digit volume measuring instrument (Jinan YiYan Technology Development co., LTD, Shandong, P.R. China) according to manufacturer instructions.
Rats were euthanized and the abdomen was cut and opened. Inguinal fat pads were exposed and a photo was taken. Then inguinal fat pads were isolated, and a gross photo was taken again followed by weighting of the pad. Total fat lipids were extracted from the inguinal fat using a protocol adapted from Folch et al. Fresh fat tissue (1g) was homogenized in 20ml of a 2:1 chloroform-methanol solution. The homogenate was filtered using a fat-free filter paper and funneled into a pre-weighted 50-ml glass vial. Then the previous vial and funnel were washed with an additional 5ml of a 2:1 chloroform-methanol solution. Afterwards 2.5 ml of 0.9% NaCl was added. The lipids were separated by centrifugation at 1,800 g, 10°C for 5 min; the aqueous layer was discarded and the tube was flushed with nitrogen until the lipid pellet was dry. The tube containing the lipid pellet was reweighed, and total lipid extracted per gram of total tissue was calculated.
Results were expressed as mean ± SEM. Statistical analysis was performed using ANOVA on ranks, followed if significant by Mann-Whitney test. The difference was considered significant when p< 0.05.
. Herein, the values representmean ±SEM. *-P<0.05 vs control. Table 5 Effect of obeticholic acid on inguinal fat pad in rats.

Where [6] appears, read: Adipocyte, viability, 48 hrs, read-out: IC50 [µM] Adipocytes.
The mark [7] stands for this setting: 48 h, read-out: Viability Preadipocytes (%).

Like-named read-outs stand apart in the source and are kept apart here. Marks after values point to notes of the source that are not given here.

Consider `C[C@H](CCC(=O)O)[C@H]1CC[C@H]2[C@@H]3CC[C@@H]4C[C@H](O)CC[C@]4(C)[C@H]3C[C@H](O)[C@]12C` [Deoxycholic acid], for which the “Viability Preadipocytes (%)” value in data set [1] (10 µM) came to 96.22%; in data set [1] (50 µM), 95.61%; in data set [1] (100 µM) it was 98.03%; in data set [1] (300 µM), 26.08%; in data set [1] (600 µM), 0.00%. The IC50 was 232 µM in data set [1]; 200 µM in data set [2] (Adipocyte, read-out: concentration required to achieve 50%-decrease in vitality of adipocytes); 244 µM in data set [2] (setting [6]). Further, the “Viability Adipocytes (%)” value in data set [2] (10 µM) is recorded as 106.98%; in data set [2] (50 µM), 95.61%; in data set [2] (100 µM), 94.30%; in data set [2] (300 µM) it was 22.06%; in data set [2] (600 µM), 0.11%.

Take `CC[C@H]1[C@@H](O)[C@@H]2[C@H](CC[C@]3(C)[C@@H]([C@H](C)CCC(=O)O)CC[C@@H]23)[C@@]2(C)CC[C@@H](O)C[C@@H]12` [Obeticholic acid, (3α,5β,6α,7α)-6-ethyl-3,7-dihydroxycholan-24-oic acid]: the viability at 10 µM in data set [1] (setting [7]) worked out at 93%; in data set [2] (Adipocyte, 48 h, read-out: Viability Adipocytes (%), 10 µM, 48h incubation, vehicle = 100%), 101%. Further, the viability at 50 µM in data set [1] (setting [7]) is 83.1%; in data set [2] (Adipocyte, 48 h, read-out: Viability Adipocytes (%), 50 µM, 48h incubation, vehicle = 100%) it was 89.6%. Further, the viability at 100 µM is 21.4% in data set [1] (setting [7]) and roughly 50% in data set [2] (Adipocyte, 48 h, read-out: Viability Adipocytes (%), 100 µM, 48h incubation, vehicle = 100%). Also, the viability at 300 µM is 0.41% in data set [1] (setting [7]) and 0.29% in data set [2] (Adipocyte, 48 h, read-out: Viability Adipocytes (%), 300 µM, 48h incubation, vehicle = 100%). The figures for the IC50 in data set [1] and in data set [2] (setting [6]) were 87.2 µM and 93.9 µM, respectively. In addition, in data set [2] (100 µM), the “Viability Adipocytes (%)” value is 49.17%. Besides, the “inflammation (histology)” value is “not” in data set [3] (0.5 % solution injected into inguinal fat pad), “not” in data set [3] (1 % solution injected into inguinal fat pad) and “increase in inflammation” in data set [3] (2 % solution injected into inguinal fat pad). Moreover, the “fat necrosis as measured by histology” value in data set [3] (0.5, 1 and 2 % solutions) was “not affected”. Also, the “normal fat content as measured by histology” value in data set [3] (0.5, 1 and 2 % solutions) is “not affected”. Moreover, the “Apoptosis Adipocytes (%)” value in data set [4] (50 µM, 6 hrs) is listed as 132.28%; in data set [4] (50 µM, 24 hrs) it was 146.44%; in data set [4] (100 µM, 6 hrs), 503.28%; in data set [4] (100 µM, 24 hrs), 180.88%; in data set [4] (300 µM, 6 hrs), 1164.30%; in data set [4] (300 µM, 24 hrs) it was 779.64%. The “Inguinal fat pad fat content difference to contralateral (sham) pad (g) N=8” value is recorded as -0.169±0.02* g in data set [5] (0.5 % solution), -0.387±0.04* g in data set [5] (1 % solution) and -0.523±0.05* g in data set [5] (2 % solution). Further, the “Inguinal fat pad weight difference to contralateral (sham) pad (g) N=12” value in data set [5] (0.5 % solution) was -0.192±0.04* g; in data set [5] (1 % solution), -0.352±0.03* g; in data set [5] (2 % solution), -0.526±0.07* g.

For orientation: viability means a read-out of living cells in per cent, often relative to untreated cells.
